Results reported in patent US7119094B1, “Substituted polycyclic aryl and heteroarpyl pyrazinones useful for selective inhibition of the coagulation cascade” (Warner-Lambert Company, priority 2000, dated 2006).
Like-named read-outs stand apart in the source and are kept apart here.

What was measured:
[1] = molecular target: T1, recombinant soluble tissue factor and recombinant human factor VIIa (TF-VIIa) (Homo sapiens, UniProt P08709); experiment: TF-VIIa Assay; type: biochemical
T1 construct: conversion of coagulation factor VII to VIIa by Xa; purchased American Diagnostica, Greenwich Conn; host or cells: factor VIIa purchased; soluble TF made in house in E. coli
T1 sequence (P08709 213-466 limits assumed): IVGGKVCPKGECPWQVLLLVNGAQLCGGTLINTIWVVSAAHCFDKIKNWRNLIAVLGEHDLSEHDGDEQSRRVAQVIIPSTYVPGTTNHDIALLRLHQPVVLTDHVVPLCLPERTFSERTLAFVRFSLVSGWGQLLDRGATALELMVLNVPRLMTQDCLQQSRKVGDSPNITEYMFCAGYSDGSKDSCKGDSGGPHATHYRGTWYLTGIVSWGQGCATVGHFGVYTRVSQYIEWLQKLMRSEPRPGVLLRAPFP
T1 sequence (P08709 61-212 limits assumed): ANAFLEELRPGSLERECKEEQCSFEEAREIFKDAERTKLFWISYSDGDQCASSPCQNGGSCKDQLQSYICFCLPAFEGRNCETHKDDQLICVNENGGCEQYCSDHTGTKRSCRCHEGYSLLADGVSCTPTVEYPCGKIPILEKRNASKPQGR
T1 sequence (P13726 33-251 partner limits assumed): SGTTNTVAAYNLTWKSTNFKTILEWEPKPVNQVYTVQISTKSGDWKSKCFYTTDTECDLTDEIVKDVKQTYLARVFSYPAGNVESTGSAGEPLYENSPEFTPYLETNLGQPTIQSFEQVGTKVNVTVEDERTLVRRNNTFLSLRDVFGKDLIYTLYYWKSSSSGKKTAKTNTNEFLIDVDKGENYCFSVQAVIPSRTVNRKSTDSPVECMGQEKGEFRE

[2] = molecular target: T2, Trypsin (type 1× from porcine pancreas) (Sus scrofa, UniProt P00761); experiment: Trypsin Assay; type: biochemical
T2 construct: Trypsin (5 ug/ml; type 1× from porcine pancreas); purchased Sigma, St. Louis Mo; host or cells: porcine pancreas
T2 sequence (P00761 9-231): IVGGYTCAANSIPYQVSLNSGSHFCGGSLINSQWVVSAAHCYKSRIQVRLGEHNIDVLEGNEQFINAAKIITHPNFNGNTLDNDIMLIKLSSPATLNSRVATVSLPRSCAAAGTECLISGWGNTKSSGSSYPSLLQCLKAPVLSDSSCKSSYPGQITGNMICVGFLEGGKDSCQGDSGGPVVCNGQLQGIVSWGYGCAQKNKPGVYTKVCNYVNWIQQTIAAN

SMILES	% Inhibition TF-VIIa (100 νM) ([1]; inhibitor at 100 νM) [%]	% Inhibition Trpysin II (100 νM) ([2]; inhibitor at 100 νM) [%]	% Inhibition TF-VIIa (100 νM) [1] [%]	% Inhibition Trpysin II (100 νM) [2] [%]
COc1ccc(-c2c(Cl)nc(NCc3ccccc3)c(=O)n2CC(=O)NCCc2ccncc2)cc1 [Example E-0033]	0	5		
COc1ccc(-c2c(Cl)nc(NCCc3ccccc3)c(=O)n2CC(=O)NCCc2ccncc2)cc1 [Example E-0034]	0	3		
COc1ccc(-c2c(Cl)nc(NCCc3cccc(Cl)c3)c(=O)n2CC(=O)NCCc2ccncc2)cc1 [Example E-0035]	4	2		
COc1ccc(-c2c(Cl)nc(NCCc3ccc(Cl)cc3)c(=O)n2CC(=O)NCCc2ccncc2)cc1 [Example E-0036]	0	0		
COc1ccc(-c2c(Cl)nc(NCCc3cccnc3)c(=O)n2CC(=O)NCCc2ccncc2)cc1 [Example E-0037]	0	2		
COc1ccc(-c2c(Cl)nc(NCCc3ccncc3)c(=O)n2CC(=O)NCCc2ccncc2)cc1 [Example E-0038]	0	3		
COc1ccc(-c2c(Cl)nc(NCCN3CCOCC3)c(=O)n2CC(=O)NCCc2ccncc2)cc1 [Example E-0039]	0	2		
COc1ccc(-c2c(Cl)nc(NCc3ccncc3)c(=O)n2CC(=O)NCCc2ccncc2)cc1 [Example E-0040]	0	4		
O=C(Cn1c(-c2ccc3c(c2)OCO3)c(Cl)nc(NCc2ccccc2)c1=O)NCCc1ccncc1 [Example E-0041]	0	2		
O=C(Cn1c(-c2ccc3c(c2)OCO3)c(Cl)nc(NCCc2ccccc2)c1=O)NCCc1ccncc1 [Example E-0042]	0	5		
O=C(Cn1c(-c2ccc3c(c2)OCO3)c(Cl)nc(NCCc2cccc(Cl)c2)c1=O)NCCc1ccncc1 [Example E-0043]	0	3		
O=C(Cn1c(-c2ccc3c(c2)OCO3)c(Cl)nc(NCCc2ccc(Cl)cc2)c1=O)NCCc1ccncc1 [Example E-0044]	0	3		
O=C(Cn1c(-c2ccc3c(c2)OCO3)c(Cl)nc(NCCc2cccnc2)c1=O)NCCc1ccncc1 [Example E-0045]	0	4		
O=C(Cn1c(-c2ccc3c(c2)OCO3)c(Cl)nc(NCCc2ccncc2)c1=O)NCCc1ccncc1 [Example E-0046]	0	4		
O=C(Cn1c(-c2ccc3c(c2)OCO3)c(Cl)nc(NCCN2CCOCC2)c1=O)NCCc1ccncc1 [Example E-0047]	0	2		
O=C(Cn1c(-c2ccc3c(c2)OCO3)c(Cl)nc(NCc2ccncc2)c1=O)NCCc1ccncc1 [Example E-0048]	0	0		
O=C(Cn1c(-c2ccc(-c3ccccc3)cc2)c(Cl)nc(NCc2ccccc2)c1=O)NCCc1ccncc1 [Example E-0049]			2	0
O=C(Cn1c(-c2ccc(-c3ccccc3)cc2)c(Cl)nc(NCCc2ccccc2)c1=O)NCCc1ccncc1 [Example E-0050]			0	0
O=C(Cn1c(-c2ccc(-c3ccccc3)cc2)c(Cl)nc(NCCc2ccc(Cl)cc2)c1=O)NCCc1ccncc1 [Example E-0052]			0	0
O=C(Cn1c(Cc2ccccc2)c(Cl)nc(NCc2ccccc2)c1=O)NCCc1ccncc1 [Example E-0057]	0	0		
O=C(Cn1c(Cc2ccccc2)c(Cl)nc(NCCc2ccccc2)c1=O)NCCc1ccncc1 [Example E-0058]	0	0		
O=C(Cn1c(Cc2ccccc2)c(Cl)nc(NCCc2cccc(Cl)c2)c1=O)NCCc1ccncc1 [Example E-0059]	0	0		
O=C(Cn1c(Cc2ccccc2)c(Cl)nc(NCCc2ccc(Cl)cc2)c1=O)NCCc1ccncc1 [Example E-0060]	0	0		
O=C(Cn1c(Cc2ccccc2)c(Cl)nc(NCCc2cccnc2)c1=O)NCCc1ccncc1 [Example E-0061]	0	0		
O=C(Cn1c(Cc2ccccc2)c(Cl)nc(NCCc2ccncc2)c1=O)NCCc1ccncc1 [Example E-0062]	0	0		
O=C(Cn1c(Cc2ccccc2)c(Cl)nc(NCCN2CCOCC2)c1=O)NCCc1ccncc1 [Example E-0063]	0	0		

SMILES	% Inhibition TF-VIIa (100 νM) ([1]; inhibitor at 100 νM) [%]	% Inhibition Trpysin II (100 νM) ([2]; inhibitor at 100 νM) [%]	% Inhibition TF-VIIa (100 νM) [1] [%]	% Inhibition Trpysin II (100 νM) [2] [%]
O=C(Cn1c(Cc2ccccc2)c(Cl)nc(NCc2ccncc2)c1=O)NCCc1ccncc1 [Example E-0064]	0	0		
O=C(Cn1c(CCc2ccccc2)c(Cl)nc(NCc2ccccc2)c1=O)NCCc1ccncc1 [Example E-0065]	0	0		
O=C(Cn1c(CCc2ccccc2)c(Cl)nc(NCCc2ccccc2)c1=O)NCCc1ccncc1 [Example E-0066]	0	0		
O=C(Cn1c(CCc2ccccc2)c(Cl)nc(NCCc2cccc(Cl)c2)c1=O)NCCc1ccncc1 [Example E-0067]	0	0		
O=C(Cn1c(CCc2ccccc2)c(Cl)nc(NCCc2ccc(Cl)cc2)c1=O)NCCc1ccncc1 [Example E-0068]	0	0		
O=C(Cn1c(CCc2ccccc2)c(Cl)nc(NCCc2cccnc2)c1=O)NCCc1ccncc1 [Example E-0069]	0	0		
O=C(Cn1c(CCc2ccccc2)c(Cl)nc(NCCc2ccncc2)c1=O)NCCc1ccncc1 [Example E-0070]	0	0		
O=C(Cn1c(CCc2ccccc2)c(Cl)nc(NCCN2CCOCC2)c1=O)NCCc1ccncc1 [Example E-0071]	0	0		
O=C(Cn1c(CCc2ccccc2)c(Cl)nc(NCc2ccncc2)c1=O)NCCc1ccncc1 [Example E-0072]	0	0		
O=C(Cn1c(-c2cccc(Cl)c2)c(Cl)nc(NCc2ccccc2)c1=O)NCCc1ccncc1 [Example E-0073]	0	6		
O=C(Cn1c(-c2cccc(Cl)c2)c(Cl)nc(NCc2ccccc2)c1=O)NCCc1cccnc1 [Example E-0074]	0	8		
O=C(Cn1c(-c2cccc(Cl)c2)c(Cl)nc(NCCc2ccccc2)c1=O)NCCc1ccncc1 [Example E-0076]	0	10		
O=C(Cn1c(-c2cccc(Cl)c2)c(Cl)nc(NCCc2ccccc2)c1=O)NCCc1cccnc1 [Example E-0077]	0	7		
O=C(Cn1c(-c2cccc(Cl)c2)c(Cl)nc(NCCc2cccc(Cl)c2)c1=O)NCCc1ccncc1 [Example E-0079]	0	11		
O=C(Cn1c(-c2cccc(Cl)c2)c(Cl)nc(NCCc2cccc(Cl)c2)c1=O)NCCc1cccnc1 [Example E-0080]	1	5		
O=C(Cn1c(-c2cccc(Cl)c2)c(Cl)nc(NCCc2ccc(Cl)cc2)c1=O)NCCc1ccncc1 [Example E-0082]	4	3		
O=C(Cn1c(-c2cccc(Cl)c2)c(Cl)nc(NCCc2ccc(Cl)cc2)c1=O)NCCc1cccnc1 [Example E-0083]	2	6		
O=C(Cn1c(-c2cccc(Cl)c2)c(Cl)nc(NCc2ccccc2)c1=O)NCCc1ccncc1 [Example E-0085]	0	9		
O=C(Cn1c(-c2cccc(Cl)c2)c(Cl)nc(NCc2ccccc2)c1=O)NCCc1cccnc1 [Example E-0086]	0	11		
O=C(Cn1c(-c2cccc(Cl)c2)c(Cl)nc(NCCc2ccccc2)c1=O)NCCc1ccncc1 [Example E-0088]	0	9		
O=C(Cn1c(-c2cccc(Cl)c2)c(Cl)nc(NCCc2ccccc2)c1=O)NCCc1cccnc1 [Example E-0089]	3	8		
O=C(Cn1c(-c2cccc(Cl)c2)c(Cl)nc(NCCc2cccc(Cl)c2)c1=O)NCCc1ccncc1 [Example E-0091]	1	8		
O=C(Cn1c(-c2cccc(Cl)c2)c(Cl)nc(NCCc2cccc(Cl)c2)c1=O)NCCc1cccnc1 [Example E-0092]	1	9		
O=C(Cn1c(-c2cccc(Cl)c2)c(Cl)nc(NCCc2ccc(Cl)cc2)c1=O)NCCc1ccncc1 [Example E-0094]	2	7		
O=C(Cn1c(-c2cccc(Cl)c2)c(Cl)nc(NCCc2ccc(Cl)cc2)c1=O)NCCc1cccnc1 [Example E-0095]	2	9		
COc1ccc(-c2c(Cl)nc(NCc3ccccc3)c(=O)n2CC(=O)NCCc2ccncc2)cc1 [Example E-0097]	0	11		
